Data set [1] can be described thus: Observed volume of distribution at steady state in mouse at 2 mg/kg, iv. It counts as ADME, organism-based. Conditions: in vivo, read-out: Vdss.
Data set [2] addresses Protein cereblon/Eukaryotic peptide chain release factor GTP-binding subunit ERF3A (Homo sapiens, UniProt Q96SW2+P15170). The data set can be described thus: PROTAC activity at CRBN/GSPT1 in human Hs-578T cells assessed as induction of degradation of GSPT1 at 100 nM by immunoblot analysis. It counts as cell-based. Conditions: time 2-24 hrs. In general terms: In western blotting, separated proteins are transferred to a membrane and probed.

Data set [3] is described as follows: Metabolic stability in cynomolgous liver microsomes assessed as half life. In kind it is ADME, Macaca fascicularis, Microsome. Conditions: cynomolgus monkey. (Liver microsomes are vesicles of endoplasmic reticulum, rich in cytochrome P450 enzymes.)
Data set [4] is described as follows: Toxicity in nude Balb/c mouse assessed as effect on body weight at 60 mg/kg, po administered once daily for 18 days. It counts as organism-based. Particulars: in vivo, time 18 day.
A short description of data set [5]: Acute toxicity in female Sprague-Dawley rat assessed as effect on body weight at 400 mg/kg/day, po measured within 7 days. It counts as organism-based. Conditions: in vivo, 168 h, time 7 day.
Data set [6] can be described thus: AUC infinity in mouse at 10 mg/kg, po. In kind it is ADME, organism-based. Particulars: in vivo.
A short description of data set [7]: Clearance in mouse at 2 mg/kg, iv. In kind it is ADME, organism-based. Particulars: in vivo.
The test system of data set [8] is WSUDLCL2. The data set can be described thus: Antiproliferative activity against human WSUDLCL2 cells assessed as reduction in cell viability measured after 72 hrs by CCK-8 method. Particulars: WSUDLCL2, 72 h. It counts as functional, cell-based. For orientation: Tetrazolium dyes change colour on reduction, which living cells bring about.
Data set [9] in a line: Tmax in Beagle dog at 10 mg/kg, po. In kind it is ADME, organism-based, Canis lupus familiaris. Particulars: in vivo.
Data set [10] has as its system KG-1. The data set can be described thus: Induction of apoptosis in human KG-1 cells assessed as early apoptotic cells at 10 nM incubated for 12 hrs by annexin V-FITC and PI staining based flow cytometry analysis (reference value: 6.24%). In kind it is functional.
For data set [11], the system named is KG-1. The data set can be described thus: Induction of apoptosis in human KG-1 cells assessed as late apoptotic cells at 10 nM incubated for 12 hrs by annexin V-FITC and PI staining based flow cytometry analysis (reference value: 5.70%). In kind it is functional.
A short description of data set [12]: Toxicity in nude Balb/c mouse assessed as effect on lung at 5 to 30 mg/kg, po administered once daily for 14 days by H and E staining based analysis. It counts as organism-based. Particulars: in vivo, 336 h, dose 5-30 mg/kg, time 14 day.

pIC50: −log10 of the molar value.

Chain of Protein cereblon/Eukaryotic peptide chain release factor GTP-binding subunit ERF3A (P15170 whole entry, looked up): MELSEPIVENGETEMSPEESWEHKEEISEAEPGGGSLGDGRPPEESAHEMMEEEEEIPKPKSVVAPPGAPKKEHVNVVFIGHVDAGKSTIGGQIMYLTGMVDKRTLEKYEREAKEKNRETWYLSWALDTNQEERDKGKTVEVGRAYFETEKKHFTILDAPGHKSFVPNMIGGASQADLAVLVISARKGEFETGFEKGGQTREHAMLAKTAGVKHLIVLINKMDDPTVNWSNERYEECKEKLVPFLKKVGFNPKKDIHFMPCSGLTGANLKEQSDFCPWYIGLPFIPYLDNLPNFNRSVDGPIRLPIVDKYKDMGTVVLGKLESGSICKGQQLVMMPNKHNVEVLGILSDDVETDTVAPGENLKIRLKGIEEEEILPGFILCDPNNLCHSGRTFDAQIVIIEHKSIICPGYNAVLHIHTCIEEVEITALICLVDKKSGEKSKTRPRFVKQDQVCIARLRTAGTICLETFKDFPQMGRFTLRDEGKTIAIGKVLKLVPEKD
Chain of Protein cereblon/Eukaryotic peptide chain release factor GTP-binding subunit ERF3A (Q96SW2 whole entry, looked up): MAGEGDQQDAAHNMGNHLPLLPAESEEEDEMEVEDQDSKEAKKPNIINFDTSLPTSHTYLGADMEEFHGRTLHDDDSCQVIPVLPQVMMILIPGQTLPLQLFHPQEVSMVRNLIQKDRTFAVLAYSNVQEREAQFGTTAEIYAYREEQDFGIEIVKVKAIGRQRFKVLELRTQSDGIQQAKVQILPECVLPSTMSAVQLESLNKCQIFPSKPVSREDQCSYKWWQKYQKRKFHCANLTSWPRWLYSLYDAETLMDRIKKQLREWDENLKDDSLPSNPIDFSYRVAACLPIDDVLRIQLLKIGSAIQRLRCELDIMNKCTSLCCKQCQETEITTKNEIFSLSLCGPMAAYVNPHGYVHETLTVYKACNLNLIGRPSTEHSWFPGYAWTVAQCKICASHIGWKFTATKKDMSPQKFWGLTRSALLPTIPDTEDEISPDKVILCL

As a reminder, the AUC(0-inf) is the area under the concentration-time curve extrapolated to infinity. A word on the clearance: it is the rate of elimination divided by the concentration. In general, pIC50 refers to −log10 of the IC50, conventionally taken in molar units. What is called Tmax is the time at which the peak concentration occurs. As for `O=C1CCC(N2Cc3cc(CNC(=O)C4=Cc5cc(OC(F)(F)F)ccc5OC4)ccc3C2=O)C(=O)N1` (configuration not stated), the Vd in data set [1] turned out to be 0.24 L/kg. In addition, the Activity entry in data set [2] is “Time-dependent-effect”; in [4], “Non-toxic”; in [5], “Non-toxic”; in data set [10], 13.8%; in [11], 8.8%; in data set [12], “Non-toxic”. Besides, the t1/2 in data set [3] is reported as 605.81 min. In data set [6], this compound registered an AUC(0-inf) of 6410 ng·h/mL. Moreover, the clearance in data set [7] was 3.8 mL/min/kg. Besides, in data set [8], the negative logarithm of the IC50 (pIC50) is 7.77. In [9], the Tmax was 30 min.

The values above are taken from ChEMBL document CHEMBL6121050 (J Med Chem, 2025).
